Test results from patent US12194043B2, “Uridine phosphorylase inhibitors to treat or prevent pulmonary disease” (Tosk, Inc., priority 2020, dated 2025).
“Also recorded” adds a separate entry of the source.

Columns and labels:
plasma UR = assay: Plasma UR concentration versus plasma Compound 1 concentration after continuous infusion via sc implanted osmotic pumps; assay type: in vivo; settings: BDF-1 male mice; for effect on plasma UR: constant-rate sc infusion 667, 833 or 3000 mg/kg/day, plasma at 72 h or 24 h
Protocol: Solutions of Compound I were prepared at a concentration of 500 mg/mL in sterile PBS. Osmotic pumps (ALZET® micro-osmotic pump 2001D and 1003D, Alza Co) were loaded with 200 μL (2001D osmotic pump) and/or 100 μL (1003D osmotic pump) of TK-112690 solution.
BDF-1 male mice (n=6) were treated with a constant-rate infusion of 667, 833 or 3000 mg/kg/day doses of Compound I delivered via subcutaneously implanted osmotic pumps. Animals were anesthetized with 100 mg/kg ketamine prior to pump implantation. Surgical scissors were used to make an approximately 1 cm incision on the dorsal surface near the shoulder blade of animals. A hemostat was used to carve out a subcutaneous tunnel toward the anterior end of animal. Osmotic pumps were placed inside the subcutaneous tunnel. Incision was sealed with wound clips.
Blood collections were performed on animals anesthetized with ketamine (ip 100 mg/kg). Blood samples from animals treated with a constant-rate infusion of TK-112690 were collected at 72 hours for 667 mg/kg/day and 833 mg/kg/day and 24 hours for 3000 mg/kg/day after pump implantation. Whole blood (˜0.8 mL) was drawn through the retro-orbital sinus using a heparin coated micro-hematocrit tube and collected into an EDTA microtainer tube. Blood samples were transferred into fresh 1.5 mL microcentrifuge tubes and centrifuged for 10 minutes at 14,000×g using an Eppendorf Minispin Plus stored in a 4° C. refrigerator. Exactly 0.4 mL of plasma was transferred into fresh microcentrifuge tubes containing 2 μL of 10 mM 5-FU and vortexed at highest setting for approximately 5 seconds. The final 50 μM concentration of 5-FU served as an internal standard. Animals were sacrificed by cervical dislocation and properly disposed.
Blood samples from animals treated with a constant-rate infusion of compound I were collected at 72 hours for 667 mg/kg/day and 833 mg/kg/day and 24 hours for 3000 mg/kg/day after pump implantation. […]
A solid-phase extraction (SPE) of analytes (UR, Compound I and 5-FU) from plasma was conducted before HPLC analysis. […] Samples were transferred into fresh HPLC vials and analyzed. […]

[1] = tested on: C57BL/6 male mice treated with bleomycin (pulmonary fibrosis); assay: Bleomycin/pulmonary fibrosis study, lung histology (Masson's trichrome, Ashcroft fibrosis grading); assay type: in vivo; settings: bleomycin OA day 0, 60 mg/kg IP BID days 7 through 20; for statistical significance of the decrease in fibrosis vs dosing vehicle: SPSS version 20
Source text: FIG. 2. Figure is a chart providing histology scores for pulmonary tissue from mice treated with bleomycin (a well characterized lung toxin) and either dosing vehicle, UR, or TK-112690.
Thirty-three C57BL/6 male mice, 10-14 weeks at study initiation, were acclimatized for least 3 days. The mouse has been selected as is referenced in the literature as a representative species of choice for this experimental animal model. During acclimation and throughout the entire study duration, animals were housed within a limited access rodent facility and kept in groups of a maximum of 4 mice per cage. Mice were housed in polypropylene cages with solid bottoms and wood shavings or corn Cobb as bedding material. Animals were provided ad libitum with a commercial rodent diet and had free access to drinking water that is supplied to each cage via polyethylene bottles. The automatically controlled environmental conditions was set to maintain temperature at 20-26° C. with a relative humidity (RH) of 30-70%, a 12:12 hour light: dark cycle, and 10-15 air changes/hour in the study room. Animals were given a unique animal identification tail mark as a means of identification. This number also appeared on a cage card, which is visible on the front of each cage. The cage card also contains the study and group numbers, route of administration, gender, study director and arrival date.
Animals were randomly assigned to cages on arrival. Animals were assigned to treatment groups prior to treatment initiation. At study termination, surviving animals were weighed prior to euthanasia. Euthanasia was performed via anesthesia overdose and exsanguination.
The table below lists the experimental group(s) comprising the study.
Disease Induction. 75 uL of Bleomycin (section 4.5.) was administered on day 0 via oropharyngeal aspiration (O.A.). The mice were anesthetized via isoflurane/oxygen and suspended by their cranial incisors on a thin wire from an angled stand. The tongue was be gently held from the mouth using blunt forceps to visualize the base of the tongue and the pharynx. Bleomycin/saline suspension was pipetted onto posterior pharynx. Nostrils will be held gently closed. Respiration was monitored to ensure the suspension is fully aspirated.
Treatment. Groups 3 and 4 were treated via intraperitoneal (IP) injection at a dosing volume of 10 ml/kg twice daily, 6-8 hours between doses, from days 7 through 20.
Observations and Examinations. […]
Histology. […] Disease severity and collagen levels were assessed by the Ashcroft fibrosis grading system.
The resulting data were analyzed by SPSS, version 20.

[2] = Elimination t1/2 of Compound 1 in mice; settings: mouse, in vivo
[3] = cited: Deng et al., Science 2017; cited from earlier work

SMILES: Cc1cn2c(nc1=O)O[C@H]1[C@H](O)[C@@H](CO)O[C@H]12 [Compound 1]
- effect on plasma UR (plasma UR): elevate plasma UR in a linear fashion
- effect on plasma UR (plasma UR; listed as TK-112690): elevate plasma UR in a linear fashion; also recorded: associated with higher levels of UR
- slope of regression line, plasma UR concentration vs plasma Compound 1 concentration (plasma UR; continuous infusion of various amounts): 0.010
- less fibrosis (histology score) than mice treated with the dosing vehicle [1]: 30%
- statistical significance of the decrease in fibrosis vs dosing vehicle [1]: statistically significant
- half-life [2]: 1 to 2 h

SMILES: O=c1ccn([C@@H]2O[C@H](CO)[C@@H](O)[C@H]2O)c(=O)[nH]1 [UR, uridine]
- less fibrosis (histology score) than mice treated with the dosing vehicle [1]: 7%
- statistical significance of the decrease in fibrosis vs dosing vehicle [1]: not statistically significant
- elimination t1/2 [3]: only a few minutes
